In patent US11801266B2, “Methods of using anti-MIR126 compounds” (CITY OF HOPE, priority 2019, dated 2023):

How the values were obtained:
human CML HSCs = assay: NIL treatment of human CML HSCs: miR-126, PIK3R2, SPRED1 expression and cell cycle; type: cell-based
Method: After transduction performed as above, GFP+ cells selected at 48 h were exposed to NIL (2 μM and 5 μM, Novartis) for another 72 h, and analyzed using assays for cell growth, apoptosis, cell cycle, CFC and CFC replating. Human HSCs and mouse LT-HSCs were also treated with CpG-miR-126 inhibitor or CpG-scrRNA (500 nM), with or without NIL (5 μM), for 72 h and analyzed for cell growth, apoptosis, cell cycle and CFC. Human CML HSCs co-cultured with control or miR-126 KD HUVECs and mouse CML LT-HSCs co-cultured with control or miR-126 KD ECs for 96 h, with or without NIL (5 μM), were also analyzed for cell growth, apoptosis, cell cycle and CFC. Cell growth was measured by Lumino Glo (Promega). Apoptosis was measured by labeling cells with Annexin V-PE or FITC or APC and 4, 6-diamidino-2-phenylindole (DAPI) (all from BD-PharMingen, San Diego, Calif.) and analyzed by flow cytometry. Cell cycle was analyzed by Ki-67-Alexa Fluor 647 (B56, BD) and DAPI labeling based on the manufacturer's protocol. Cells were also exposed to EdU (C10640, Invitrogen) for 2 h and EdU staining was analyzed according to the manufacturer's protocol. Cell proliferation was also measured by CFSE staining (Molecular probes) based on the manufacturer's protocol. For CFC, Lin-CD34+CD38− cells cultured with or without NIL (5 μM) were plated in methylcellulose progenitor culture, and burst-forming unit-erythroid and colony-forming unit-granulocyte and macrophage cells were counted after 14 days. […]
To measure the miRNA and mRNA expression, total RNA was extracted using the miRNeasy Mini Kit (Qiagen, Valencia, Calif.). […] BCR-ABL expression in human and mouse samples were measured with primer and probe sequences for BCR-ABL (B3A2 or B2A2), as previously described^46. […]
K562, HUVEC, normal and CML CD34+CD38− cells were cultured and incubated with miR126 SmartFlare RNA probe (EMD Millipore) for 16 h. […] Nuclei were counterstained with DAPI and the images were analyzed using a confocal microscope (Carl Zeiss).

human BCR-ABL+K562 cells = assay: NIL treatment of K562 cells: miR-126 staining; type: cell-based; settings: K562 cells with and without 5 μM NIL
Method: K562, HUVEC, normal and CML CD34+CD38− cells were cultured and incubated with miR126 SmartFlare RNA probe (EMD Millipore) for 16 h. […] Cells were then washed in 1× phosphate buffered saline (PBS) and fixed in 4% paraformaldehyde for 3 min. Nuclei were counterstained with DAPI and the images were analyzed using a confocal microscope (Carl Zeiss).

[1] = test system: BCR-ABL+ primary CD34+ and/or K562 cells; type: cell-based, human
Method: Nuclei were counterstained with DAPI.
(§1) Proteins were resolved on 10% sodium dodecyl sulfate-polyacrylamide gel electrophoresis (SDS-PAGE) gels and transferred to nitrocellulose membrane. Membranes were sequentially reprobed with primary and secondary antibodies. […] Horseradish peroxidase-conjugated secondary antibodies were from Jackson ImmunoResearch Laboratories (Westgrove, Pa.). Antibody detection was performed using the Superfemto kit (Pierce Biotechnology, Rockford, Ill.). Protein levels were determined by densitometry using Image-Quant software (Amersham Pharmacia Biotech, Piscataway, N.J.).

CML CD34+ cells = assay: MAPK/ERK, BCL-2 and apoptosis in NIL-treated CML CD34+ cells; type: cell-based, human
Method: After transduction performed as above, GFP+ cells selected at 48 h were exposed to NIL (2 μM and 5 μM, Novartis) for another 72 h, and analyzed using assays for cell growth, apoptosis, cell cycle, CFC and CFC replating. […] Cell growth was measured by Lumino Glo (Promega). Apoptosis was measured by labeling cells with Annexin V-PE or FITC or APC and 4, 6-diamidino-2-phenylindole (DAPI) (all from BD-PharMingen, San Diego, Calif.) and analyzed by flow cytometry. […] Cells were also exposed to EdU (C10640, Invitrogen) for 2 h and EdU staining was analyzed according to the manufacturer's protocol. Cell proliferation was also measured by CFSE staining (Molecular probes) based on the manufacturer's protocol. For CFC, Lin-CD34+CD38− cells cultured with or without NIL (5 μM) were plated in methylcellulose progenitor culture, and burst-forming unit-erythroid and colony-forming unit-granulocyte and macrophage cells were counted after 14 days. Colony replating assays were performed by collecting and pooling colonies from primary CFC assays and plating 10,000 cells in secondary CFC assays.
as §1

CML LT-HSCs = assay: NIL treatment of miR-126flox/wt/Tie2+ or Tie2− mice transplanted with CML LT-HSCs; type: in vivo, mouse; settings: NIL 50 mg/kg daily oral gavage for 3 weeks
Method: Next, we sorted CML LT-HSCs from induced CD45.1/CD45.2 SCLtTA/BCR-ABL mice and transplanted them into CD45.2 miR-126^flox/wt/Tie2+ (heterozygous miR-126 KO allele in ECs) or Tie2− (WT miR-126 allele in ECs) mice. After confirming CML development, we treated the mice with NIL (50 mg/kg, daily by oral gavage) or vehicle for 3 weeks.
Animal studies. Inducible transgenic SCLtTA/BCR-ABL mice in the FVB/N background^37,38 were backcrossed to the B6 background (CD45.2) for 10 generations. Transgenic BCR-ABL mice were maintained on tetracycline water at 0.5 g/L. Withdrawal of tetracycline results in expression of BCR-ABL and generation of a CML-like disease in these mice^37,38. Unless otherwise indicated, BCR-ABL expression was induced for 2-3 weeks by tetracycline withdrawal in 6-8 weeks old male and female mice and then BM cells (from both tibias and femurs) were collected for experiments. SCLtTA/BCR-ABL mice (CD45.2, B6) were also bred with CD45.1 B6 mice to produce CD45.1/CD45.2 SCLtTA/BCR-ABL mice as donors. miR-126^flox/flox mice (B6, from Dr. Kuo, Stanford) were crossed with Mx1-cre, Tie2-cre (both from The Jackson Laboratory) and SCLtTA/BCR-ABL mice (all B6) to obtain the following strains: miR-126^flox/flox/Mx1-cre, SCLtTA/BCR-ABL/miR-126^flox/flox/Mx1-cre, miR-126^flox/wt/Tie2-cre and miR-126^flox/flox/Tie2-cre. […]

CML LSCs = assay: In vivo treatment of CML mice (SCLtTA/BCR-ABL BM cells transplanted into congenic B6 mice); set-up: species or system mouse; settings: CML mice, 3 weeks of treatment, followed 60 days after treatment discontinuation
Method: Next, we transplanted BM cells from SCLtTA/BCR-ABL mice (CD45.2) into congenic B6 mice (CD45.1). Following confirmation of CML development at 4 weeks after transplantation, mice were treated as above with scrRNA, inhibitor, scrRNA+NIL, or inhibitor+NIL for 3 weeks.

[2] = CML CD34+ cells, NIL treatment, western blot

With `Cc1cn(-c2cc(NC(=O)c3ccc(C)c(Nc4nccc(-c5cccnc5)n4)c3)cc(C(F)(F)F)c2)cn1` [NIL, nilotinib] the “fraction of quiescent cells” value (human CML HSCs; human CML HSCs, 5 μM NIL vs DMSO, cell cycle analysis) was “increased”, the SPRED1 levels (human CML HSCs; human CML Lin-CD34+CD38− cells treated with NIL, compared with vehicle alone, QPCR) was “decreased” and the miR-126 expression (human CML HSCs; human CML Lin-CD34+CD38− cells, NIL 2 μM or 5 μM, compared with vehicle alone, QPCR and miRNA staining) was “increased”. For the same compound, the miR-126 expression (human BCR-ABL+K562 cells) was “increased”, the SPRED1 phosphorylation [1] was “de-phosphorylation” and the “binding and co-localization of SPRED1 with RAN” value [1] was “decreased”. The “formation of RAN/Exp-5/RCC1 complex” value [1] was “increased”, the “mature miR-126 levels” value [1] was “increased” and the “pri- and pre-miR-126 levels” value [1] was “decreased”. For the same compound, the “ratio of pri- and pre-miR-126 to mature miR-126 levels” value [1] was “decreased”, the cell survival (CML CD34+ cells; CML CD34+ cells, NIL treatment) was “promoted survival” and the BCL-2 expression (CML CD34+ cells; [2]) was “increased”. The MAPK/ERK activation (CML CD34+ cells; [2]) was “enhanced”, the “day of 50 percent survival” value (CML LT-HSCs; Tie2− mice (WT miR-126 in ECs) transplanted with CML LT-HSCs, untreated Tie2− approx. day 60) was about 150 days and the “survival at day 150” value (CML LT-HSCs; miR-126flox/wt/Tie2+ mice (heterozygous miR-126 KO in ECs) transplanted with CML LT-HSCs) was “all NIL-treated Tie2+ mice were alive”.

In the case of `O=C(NOC[C@H](O)CO)c1ccc(F)c(F)c1Nc1ccc(I)cc1F` [PD0325901], the NIL-induced apoptosis (CML CD34+ cells; CML Lin-CD34+ cells, PD0325901 500 nM in combination with NIL, 72 h) is reported as “enhanced”.

With “5′ G*G*T GCA TCG ATG CAGG*G*G* G*G xxxxx mGmUmA mGmAmA mCmCmG mUmAmC mUmCmG mUmCmA mCmUmU mA 3′ (GGTGCATCGATGCAGGGGGGGUAGAACCGUACUCGUCACUUA; phosphorothioate, 2'-O-methyl, linker; (1)..(2) phosphorothioation; (2)..(3) phosphorothioation; (16)..(17) phosphorothioation; (17)..(18) phosphorothioation; (18)..(19) phosphorothioation; (19)..(20) phosphorothioation; (20)..(21) ((CH2)3)5; (20)..(21) Five C3 carbon chain linkers, ((CH2)3)5; modified_base (21)..(21) gm; modified_base (22)..(22) um; modified_base (23)..(23) 2′-O-Methyladenosine; modified_base (24)..(24) gm; modified_b) [scrRNA, CpG ODN linked to scrambled RNA, control oligonucleotide]” the mice that survived (CML LSCs) was “all of the mice treated with scrRNA alone died of leukemia”.
